The results in this text go back to patent US12435061B2 (priority 2020, dated 2025).

Counter-ions that a name gives are not always drawn. Like-named read-outs stand apart in the source and are kept apart here.

The assay deals with hTRPV3 (Homo sapiens (Human), UniProt Q8NET8). Description: Whole-cell patch clamp, hTRPV3 Phase 1 / Phase 2 currents. Format: cell-based. A digest of the protocol: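 Whole-cell recordings on induced TRPV3 cells replated on coverslips, held at −40 mV with 400 ms ramps from −120 to +100 mV every 5 s; currents read at −80 and +80 mV. Ringer's external solution; current activated by heating to ≥28 °C or 20 μM 2-APB.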
(In general: Patch clamp records ionic current or voltage across a cell membrane.)

[1] abbreviates: Phase 1 current, human TRPV3, read-out: hTRPV3 (nM) Phase 1.
Where [2] appears, read: Phase 1 current, inward, whole-cell patch clamp, read-out: hTRPV3 Patch P1 Inwd.
Setting [3] is: Phase 2 current, human TRPV3, read-out: hTRPV3 (nM) Phase 2.
Setting [4] is: Phase 2 current, inward, whole-cell patch clamp, read-out: hTRPV3 Patch P2 Inwd.

Chain of hTRPV3 (Q8NET8 whole entry): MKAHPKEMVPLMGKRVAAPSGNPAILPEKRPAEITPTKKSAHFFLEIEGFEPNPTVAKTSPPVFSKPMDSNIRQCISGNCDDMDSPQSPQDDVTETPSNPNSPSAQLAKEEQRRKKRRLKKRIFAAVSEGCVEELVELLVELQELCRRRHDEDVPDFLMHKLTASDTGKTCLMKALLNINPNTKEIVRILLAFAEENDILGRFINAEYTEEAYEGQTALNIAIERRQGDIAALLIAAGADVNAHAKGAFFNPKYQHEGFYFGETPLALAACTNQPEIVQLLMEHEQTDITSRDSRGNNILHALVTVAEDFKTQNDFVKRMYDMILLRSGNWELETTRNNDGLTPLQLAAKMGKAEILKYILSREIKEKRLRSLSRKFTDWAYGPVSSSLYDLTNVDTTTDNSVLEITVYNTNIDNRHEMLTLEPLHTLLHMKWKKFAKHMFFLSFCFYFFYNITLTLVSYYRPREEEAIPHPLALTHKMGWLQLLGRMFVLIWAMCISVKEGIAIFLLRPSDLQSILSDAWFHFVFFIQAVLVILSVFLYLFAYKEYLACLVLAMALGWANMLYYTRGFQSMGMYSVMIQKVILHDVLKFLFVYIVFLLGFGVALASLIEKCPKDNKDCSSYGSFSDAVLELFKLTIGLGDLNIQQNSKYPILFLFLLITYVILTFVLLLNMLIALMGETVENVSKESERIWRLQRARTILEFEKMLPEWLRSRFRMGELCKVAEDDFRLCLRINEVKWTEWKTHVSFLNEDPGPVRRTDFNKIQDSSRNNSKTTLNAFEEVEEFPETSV

With `CC(C)c1ccccc1Oc1ccc(C2CCN(C(=O)c3ccc(C(F)(F)F)cn3)C2)c(CO)c1` (stereo not shown) [Compound 2-21, (3-(2-(hydroxymethyl)-4-(2-isopropylphenoxy)phenyl)pyrrolidin-1-yl)(5-(trifluoromethyl)pyridin-2-yl)methanone], the IC50 by setting is: under setting [1], 97.1 nM; under setting [2], 10 to 100 nM.
Taken in the same sequence, the figures for `COC(=O)c1cc(-c2ccccc2C(C)C)ccc1C1CCN(C(=O)c2ccc(F)cn2)C1` (stereo not shown) [Compound 2-23] were 886 nM and 100 to 1000 nM.
On to `CCc1cncnc1Oc1ccc(C2CCN(C(=O)c3ccc(F)cn3)C2)c(CO)c1` (stereo not shown) [Compound 2-24, (3-(4-(5-ethylpyrimidin-4-yloxy)-2-(hydroxymethyl)phenyl)pyrrolidin-1-yl)(5-fluoropyridin-2-yl)methanone], for which the IC50 by setting is: under setting [1], above 3200 nM; under setting [2], above 1000 nM.
`CC(C)c1ccccc1Oc1ccc(C2CCN(C(=O)c3ncccc3Cl)C2)c(C(=O)O)c1` (stereo not shown) [Compound 2-25, 2-(1-(3-chloropicolinoyl)pyrrolidin-3-yl)-5-(2-isopropylphenoxy)benzoic acid]: the IC50 is above 3200 nM under setting [1] and above 1000 nM under setting [2].
Taken in the same sequence, the figures for `CC(C)c1ccccc1Oc1ccc(C2CCN(C(=O)c3ccccn3)C2)c(C(N)=O)c1` (stereo not shown) [Compound 2-31, 5-(2-isopropylphenoxy)-2-(1-picolinoylpyrrolidin-3-yl)benzamide] were 1370 nM and above 1000 nM.
`CCc1ccccc1Oc1ccc(C2CCN(C(=O)c3ncccc3Cl)C2)c(C(N)=O)c1` (stereo not shown) [Compound 2-37, 2-(1-(3-chloropicolinoyl)pyrrolidin-3-yl)-5-(2-ethylphenoxy)benzamide]: the IC50 by setting is: under setting [1], around 2190 nM; under setting [2], above 1000 nM.
For the compound `CCc1ccccc1Oc1ccc(C2CCN(C(=O)c3ccccn3)C2)c(C(N)=O)c1` (stereo not shown) [Compound 2-38, 5-(2-ethylphenoxy)-2-(1-picolinoylpyrrolidin-3-yl)benzamide], the IC50 under setting [1] was 2820 nM and the IC50 under setting [2] is above 1000 nM.
Taken in the same sequence, the figures for `CCc1ccccc1Oc1ccc(C2CCN(C(=O)c3ccc(Cl)cn3)C2)c(C(N)=O)c1` (stereo not shown) [Compound 2-39, 2-(1-(5-chloropicolinoyl)pyrrolidin-3-yl)-5-(2-ethylphenoxy)benzamide] were 681 nM and 100 to 1000 nM.
For the compound `CCc1ccccc1Oc1ccc(C2CCN(C(=O)c3cccc(C)n3)C2)c(C(N)=O)c1` (stereo not shown) [Compound 2-40, 5-(2-ethylphenoxy)-2-(1-(6-methylpicolinoyl)pyrrolidin-3-yl)benzamide], the IC50 was 4900 nM under setting [1] and above 1000 nM under setting [2].
Taken in the same sequence, the figures for `CC(C)c1ccccc1-c1ccc(C2CCN(C(=O)c3ncccc3Cl)C2)c(C(N)=O)c1` (stereo not shown) [Compound 2-41] were 575 nM and 100 to 1000 nM.
As to `CCc1cccnc1Oc1ccc(C2CCN(C(=O)c3ccc(F)cn3)C2)c(CO)c1` (stereo not shown) [Compound 2-44, (3-(4-(3-ethylpyridin-2-yloxy)-2-(hydroxymethyl)phenyl)pyrrolidin-1-yl)(5-fluoropyridin-2-yl)methanone], the IC50 under setting [1] was above 3200 nM and the IC50 under setting [2] is above 1000 nM.
Taken in the same sequence, the figures for `CC(C)c1ccccc1-c1ccc(C2CCN(C(=O)c3ccccn3)C2)c(C(N)=O)c1` (stereo not shown) [Compound 2-45] were 929 nM and 100 to 1000 nM.
For `CC(C)c1ccccc1Oc1ccc(C2CCN(C(=O)c3ncccc3F)C2)c(C(N)=O)c1` (stereo not shown) [Compound 2-46, 2-(1-(3-fluoropicolinoyl)pyrrolidin-3-yl)-5-(2-isopropylphenoxy)benzamide], the IC50 runs as follows: under setting [1], around 2250 nM; under setting [2], above 1000 nM.
As to `CCc1ccccc1-c1ccc(C2CCN(C(=O)c3ncccc3F)C2)c(CO)c1` (stereo not shown) [Compound 2-54, (3-(2′-ethyl-3-(hydroxymethyl)biphenyl-4-yl)pyrrolidin-1-yl)(3-fluoropyridin-2-yl) methanone], the IC50 is, setting by setting: under setting [1], 91.3 nM; under setting [2], 10 to 100 nM.
Consider `O=C(c1ncccc1Cl)N1CCC(c2ccc(-c3ccccc3C3CC3)cc2CO)C1` (stereo not shown) [Compound 2-55, (3-chloropyridin-2-yl)(3-(2′-cyclopropyl-3-(hydroxymethyl)biphenyl-4-yl)pyrrolidin-1-yl)methanone], for which the IC50 runs as follows: under setting [1], 88.4 nM; under setting [2], 10 to 100 nM.
The matching figures for `CCOc1ccccc1-c1ccc(C2CCN(C(=O)c3ccc(F)cn3)C2)c(CO)c1` (stereo not shown) [Compound 2-59, (3-(2′-ethoxy-3-(hydroxymethyl)biphenyl-4-yl)pyrrolidin-1-yl)(5-fluoropyridin-2-yl)methanone]: 62.1 nM and 10 to 100 nM.
`O=C(c1cc(Cl)ccn1)N1CCC(c2ccc(-c3ccccc3C3CC3)cc2CO)C1` (stereo not shown) [Compound 2-60, (4-chloropyridin-2-yl)(3-(2′-cyclopropyl-3-(hydroxymethyl)biphenyl-4-yl)pyrrolidin-1-yl)methanone]: the IC50 reads like this: under setting [1], 26.5 nM; under setting [2], 10 to 100 nM.
As to `COCc1ccccc1-c1ccc(C2CCN(C(=O)c3ccc(F)cn3)C2)c(CO)c1` (stereo not shown) [Compound 2-61, (5-fluoropyridin-2-yl)(3-(3-(hydroxymethyl)-2′-(methoxymethyl)biphenyl-4-yl)pyrrolidin-1-yl)methanone], the IC50 reads like this: under setting [1], 153 nM; under setting [2], 100 to 1000 nM.
Consider `CCc1ccccc1-c1ccc(C2CCN(C(=O)c3cc(OC)ccn3)C2)c(CO)c1` (stereo not shown) [Compound 2-63, (3-(2′-ethyl-3-(hydroxymethyl)biphenyl-4-yl)pyrrolidin-1-yl)(4-methoxypyridin-2-yl)methanone], for which the IC50 by setting is: under setting [1], 235 nM; under setting [2], 100 to 1000 nM.
Take `COCc1ccccc1-c1ccc(C2CCN(C(=O)c3ccc(Cl)cn3)C2)c(CO)c1` (stereo not shown) [Compound 2-65, (5-chloropyridin-2-yl)(3-(3-(hydroxymethyl)-2′-(methoxymethyl)biphenyl-4-yl)pyrrolidin-1-yl)methanone]: the IC50 was 97.7 nM under setting [1] and 10 to 100 nM under setting [2].
In the case of `CCc1nccnc1-c1ccc(C2CCN(C(=O)c3ccc(F)cn3)C2)c(CO)c1` (stereo not shown) [Compound 2-68, (3-(4-(3-ethylpyrazin-2-yl)-2-(hydroxymethyl)phenyl)pyrrolidin-1-yl)(5-fluoropyridin-2-yl)methanone], the IC50 runs as follows: under setting [1], above 3200 nM; under setting [2], above 1000 nM.
On to `CC(O)c1cc(F)ccc1-c1ccc(C2CCN(C(=O)c3ccc(F)cn3)C2)c(CO)c1` (stereo not shown) [Compound 2-70, (3-(4′-fluoro-2′-(1-hydroxyethyl)-3-(hydroxymethyl)biphenyl-4-yl)pyrrolidin-1-yl)(5-fluoropyridin-2-yl)methanone], for which the IC50 was 2330 nM under setting [1] and above 1000 nM under setting [2].
`CC(O)c1cc(F)ccc1-c1ccc(C2CCN(C(=O)c3ccc(Cl)cn3)C2)c(CO)c1` (stereo not shown) [Compound 2-71, (5-chloropyridin-2-yl)(3-(4′-fluoro-2′-(1-hydroxyethyl)-3-(hydroxymethyl)biphenyl-4-yl)pyrrolidin-1-yl)methanone]: the IC50 runs as follows: under setting [1], 860 nM; under setting [2], 100 to 1000 nM; under setting [3], 572 nM; under setting [4], 100 to 1000 nM.
Regarding `O=C(c1ncccc1F)N1CCC(c2ccc(-c3ccccc3C3CC3)cc2CO)C1` (stereo not shown) [Compound 2-74], the IC50 by setting is: under setting [1], 90.5 nM; under setting [2], 10 to 100 nM; under setting [3], 54.6 nM; under setting [4], 10 to 100 nM.
Turning to `COc1ccnc(C(=O)N2CCC(c3ccc(-c4ccccc4C4CC4)cc3CO)C2)c1` (stereo not shown) [Compound 2-75, (3-(2′-cyclopropyl-3-(hydroxymethyl)biphenyl-4-yl)pyrrolidin-1-yl)(4-methoxypyridin-2-yl)methanone], the IC50 by setting is: under setting [1], 215 nM; under setting [2], 100 to 1000 nM.
For `COc1ccc(C(=O)N2CCC(c3ccc(-c4ccccc4C4CC4)cc3CO)C2)nc1` (stereo not shown) [Compound 2-76, (3-(2′-cyclopropyl-3-(hydroxymethyl)biphenyl-4-yl)pyrrolidin-1-yl)(5-methoxypyridin-2-yl)methanone], the IC50 by setting is: under setting [1], 71 nM; under setting [2], 10 to 100 nM.
Take `O=C(c1ccc(C(F)(F)F)cn1)N1CCC(c2ccc(-c3ccccc3)nc2CO)C1` (stereo not shown) [Compound 2-81]: the IC50 under setting [1] was 268 nM, the IC50 under setting [2] lay in the range of 100 to 1000 nM, the IC50 under setting [3] was determined as 298 nM and the IC50 under setting [4] was 100 to 1000 nM.
For the compound `O=C(c1ccc(Cl)cn1)N1CCC(c2ccc(-c3ccccc3)nc2CO)C1` (stereo not shown) [Compound 2-82], the IC50 is, setting by setting: under setting [1], 836 nM; under setting [2], 100 to 1000 nM.
Regarding `Cc1ccccc1Oc1ccc(C2CCN(C(=O)c3ncccc3Cl)C2)c(CO)c1` (stereo not shown) [Compound 2-84, (3-chloropyridin-2-yl)(3-(2-(hydroxymethyl)-4-(o-tolyloxy)phenyl)pyrrolidin-1-yl)methanone], under setting [1], the IC50 turned out to be 932 nM.
As to `O=C(c1ncccc1Cl)N1CCC(c2ccc(Oc3ccccc3)cc2CO)C1` (stereo not shown) [Compound 2-85, (3-chloropyridin-2-yl)(3-(2-(hydroxymethyl)-4-phenoxyphenyl)pyrrolidin-1-yl)methanone], the IC50 under setting [1] is 3310 nM.
For the compound `CC(C)c1ccccc1Oc1ccc(C2CC(=O)N(Cc3ncccc3Cl)C2)c(CO)c1` (stereo not shown) [Compound 2-88, 1-((3-chloropyridin-2-yl)methyl)-4-(2-(hydroxymethyl)-4-(2-isopropylphenoxy)phenyl)pyrrolidin-2-one], the IC50 by setting is: under setting [1], 169 nM; under setting [2], 100 to 1000 nM; under setting [3], 184 nM; under setting [4], 100 to 1000 nM.
Take `Cc1cccnc1CN1CCC(c2ccc(Oc3ccccc3C(C)C)cc2CO)C1` (stereo not shown) [Compound 2-89, (5-(2-isopropylphenoxy)-2-(1-((3-methylpyridin-2-yl)methyl)pyrrolidin-3-yl)phenyl)methanol hydrochloride]: the IC50 was 1230 nM under setting [1] and above 1000 nM under setting [2].
